Converted amounts (≈) assume the structure as drawn. Where two headings read alike, the source gives them in different places.
Tests used:
[1] = test system: B. fragilis WS-1; experiment: MIC/MBC broth microdilution, strain E; type: cell-based, Bacteroides fragilis; conditions: Bacteroides fragilis, WS1, 48 h; for MIC: 37° C., anaerobic; for MBC: 99.9% reduction in viable count after 48 h
[2] = test system: B. fragilis NCTC 9343; experiment: MIC/MBC broth microdilution, strain B; type: cell-based; conditions: Bacteroides fragilis, NCTC9343, 48 h; for MIC: 37° C., anaerobic; for MBC: 99.9% reduction in viable count after 48 h
[3] = test system: Peptostreptococcus anaerobicus; experiment: MIC vs. panel of anaerobes; type: cell-based
[4] = test system: Clostridium difficile NCIB 10666; experiment: MIC vs. panel of anaerobes; type: cell-based; conditions: Clostridioides difficile, NCIB10666
[5] = test system: B. Fragilis ATCC 23745; conditions: Bacteroides fragilis, ATCC23745, in Mus musculus, po, 48 h, read-out: Dose giving 1 log reduction, p.o., after infection and twice daily for 2 days; 1 log (90%) reduction of CFU/ml liver homogenate vs untreated; compound of Example
[6] = test system: B. fragilis NCTC 9344; experiment: MIC/MBC broth microdilution, strain C; type: cell-based, Bacteroides fragilis; conditions: Bacteroides fragilis, NCTC9344, 48 h; for MIC: 37° C., anaerobic; for MBC: 99.9% reduction in viable count after 48 h, read-out: MBC
[7] = test system: Fusobacterium necrophorum ATCC 11295; experiment: MIC vs. panel of anaerobes; type: cell-based; conditions: ATCC11295; Fusobacterium necrophorum ATCC 11295; read-out: MIC
[8] = test system: Clostridium perfringens NCTC 8237; experiment: microbe, parasite or virus in culture; type: cell-based; conditions: NCTC8237
[9] = test system: Clostridium difficile Cytotoxic 1; experiment: MIC vs. panel of anaerobes; type: cell-based; conditions: Clostridioides difficile
[10] = test system: B. fragilis NCTC 10581; experiment: MIC/MBC broth microdilution, strain A; type: cell-based; conditions: Bacteroides fragilis, NCTC10581, 48 h; for MIC: 37° C., anaerobic; for MBC: 99.9% reduction in viable count after 48 h
[11] = test system: Campylobacter fetus ss.jejuni ATCC 29428; experiment: MIC vs. panel of anaerobes; type: cell-based; conditions: ATCC29428
[12] = test system: Bacteroides melanogenicus NCTC 9336; experiment: MIC vs. panel of anaerobes; type: cell-based; conditions: NCTC9336
[13] = test system: B. fragilis MZ-R ATCC 11295; experiment: MIC/MBC broth microdilution, strain D; type: cell-based; conditions: Bacteroides fragilis, ATCC11295, 48 h; for MBC: 99.9% reduction in viable count after 48 h
[14] = test system: Clostridium perfringens NCTC 523; experiment: microbe, parasite or virus in culture; type: cell-based; conditions: NCTC523
[15] = test system: Propionebacterium acnes NCTC 7337; experiment: MIC vs. panel of anaerobes; type: cell-based
[16] = test system: Propionebecterium acnes NCTC 737; experiment: MIC vs. panel of anaerobes; type: cell-based
[17] = Peptostreptococcus anaerobicus, read-out: MIC
[18] = Clostridium difficile NCIB 10666, read-out: MIC
[19] = Bacteroides melanogenicus NCTC 9336, read-out: MIC
[20] = strain D (MZ-R), 48 h, 37° C., anaerobic, read-out: MIC

Structure (SMILES) | MIC ([1]; read-out: MIC) | MIC ([2]; read-out: MIC) | MIC [3, 17] | MIC [4, 18] | ED (1 log reduction) [5] | MIC ([6]; read-out: MIC) | MIC [7] | MIC [8] | MIC [9] | MIC [11] | MIC [12, 19] | MIC [13] | MIC [14] | MIC [15] | MIC [16] | MBC [1] | MBC [2] | MBC [6] | MIC ([10]; read-out: MIC) | MBC [10] | other results
[O-][N+]1=C(c2ccccc2)C2=NCCN2c2cc(N3CCN(c4ccccc4)CC3)c(F)cc21 [Example 5, 1,2-Dihydro-7-fluoro-4-phenyl-8-(4-phenylpiperazinyl)imidazo[1,2-a]quinoxaline 5-oxide] | 1.5 µg/mL (≈ 3.4 µM) | 1.5 µg/mL (≈ 3.4 µM) | > 100 µg/mL | < 0.8 µg/mL | 11.7 mg/kg | 6.2 µg/mL (≈ 14 µM) | 6.2 µg/mL (≈ 14 µM) | 6.2 µg/mL (≈ 14 µM) | < 0.8 µg/mL | > 100 µg/mL | > 100 µg/mL | 0.8 µg/mL (≈ 1.81 µM) | 3.1 µg/mL (≈ 7.02 µM) | > 100 µg/mL | > 100 µg/mL |  |  |  |  |  | MIC ([10]; 48 h): 3.1 µg/mL (≈ 7.02 µM)
CC(=O)N1CCN(c2ccc3c(c2)N2CCN=C2C(c2ccccc2)=[N+]3[O-])CC1 [Example 7, 8-(4-Acetylpiperazinyl)-1,2-dihydro-4-phenylimidazo[1,2-a]quinoxaline 5-oxide] | 6.2 µg/mL (≈ 15.9 µM) |  | 12.5 µg/mL (≈ 32.1 µM) | < 0.8 µg/mL | 11.3 mg/kg | 6.2 µg/mL (≈ 15.9 µM) | 3.1 µg/mL (≈ 7.96 µM) | 3.1 µg/mL (≈ 7.96 µM) | < 0.8 µg/mL | 12.5 µg/mL (≈ 32.1 µM) | 6.2 µg/mL (≈ 15.9 µM) |  | 1.5 µg/mL (≈ 3.85 µM) | 12.5 µg/mL (≈ 32.1 µM) | 25 µg/mL (≈ 64.2 µM) | 6.2 µg/mL (≈ 15.9 µM) | 3.1 µg/mL (≈ 7.96 µM) | 6.2 µg/mL (≈ 15.9 µM) | 6.2 µg/mL (≈ 15.9 µM) | 6.2 µg/mL (≈ 15.9 µM) | MIC ([2]; 48 h): 3.1 µg/mL (≈ 7.96 µM); MBC ([13]; strain D (MZ-R)): 1.5 µg/mL (≈ 3.85 µM); MIC [13, 20]: 1.5 µg/mL (≈ 3.85 µM)
[O-][N+]1=C(c2ccccc2)C2=NCCN2c2cc(N3CCN(c4ccccc4)CC3)ccc21 [Example 8, 1,2-Dihydro-4-phenyl-8-(4-phenylpiperazinyl)imidazo[1,2-a]quinoxaline 5-oxide] |  | 1.5 µg/mL (≈ 3.54 µM) | > 100 µg/mL | < 0.8 µg/mL |  |  | 3.1 µg/mL (≈ 7.32 µM) | 3.1 µg/mL (≈ 7.32 µM) | < 0.8 µg/mL | > 100 µg/mL | > 100 µg/mL | < 0.8 µg/mL | 1.5 µg/mL (≈ 3.54 µM) | > 100 µg/mL | > 100 µg/mL |  |  |  | 1.5 µg/mL (≈ 3.54 µM) |  | MIC ([1]; 48 h): 3.1 µg/mL (≈ 7.32 µM); MIC ([6]; 48 h): < 0.8 µg/mL
CN1CCN(c2ccc3c(c2)N2CCN=C2C(c2ccccc2)=[N+]3[O-])CC1 [Example 4, 1,2-Dihydro-8-(4-methylpiperazinyl)-4-phenylimidazo[1,2-a]-quinoxaline 5-oxide] | 6.2 µg/mL (≈ 17.2 µM) |  |  | 1.5 µg/mL (≈ 4.15 µM) | 7.73 mg/kg |  | 6.2 µg/mL (≈ 17.2 µM) | 12.5 µg/mL (≈ 34.6 µM) | 6.2 µg/mL (≈ 17.2 µM) | 25 µg/mL (≈ 69.2 µM) |  |  | 6.2 µg/mL (≈ 17.2 µM) | 25 µg/mL (≈ 69.2 µM) | 25 µg/mL (≈ 69.2 µM) | 6.2 µg/mL (≈ 17.2 µM) | 3.1 µg/mL (≈ 8.58 µM) | 3.1 µg/mL (≈ 8.58 µM) |  | 3.1 µg/mL (≈ 8.58 µM) | MIC ([2]; 48 h): 3.1 µg/mL (≈ 8.58 µM); MIC ([3]; Peptostreptococcus): 12.5 µg/mL (≈ 34.6 µM); MIC ([6]; 48 h): 3.1 µg/mL (≈ 8.58 µM); MIC ([10]; 48 h): 3.1 µg/mL (≈ 8.58 µM); MIC ([12]; Bacteroides): 12.5 µg/mL (≈ 34.6 µM); MBC ([13]; strain D (MZ-R)): 1.5 µg/mL (≈ 4.15 µM); MIC [13, 20]: 1.5 µg/mL (≈ 4.15 µM)
[O-][N+]1=C(c2ccccc2)C2=NCCN2c2cc(F)c(F)cc21 [Example 2, 1,2-Dihydro-7,8-difluoro-4-phenylimidazo[1,2-a]quinoxaline 5-oxide] | 0.6 µg/mL (≈ 2 µM) | 0.15 µg/mL (≈ 0.501 µM) | 12.5 µg/mL (≈ 41.8 µM) |  | < 40 mg/kg | 0.6 µg/mL (≈ 2 µM) | 3.1 µg/mL (≈ 10.4 µM) | 6.2 µg/mL (≈ 20.7 µM) | 6.2 µg/mL (≈ 20.7 µM) | 12.5 µg/mL (≈ 41.8 µM) | 6.2 µg/mL (≈ 20.7 µM) | 0.08 µg/mL (≈ 0.267 µM) | 6.2 µg/mL (≈ 20.7 µM) | 25 µg/mL (≈ 83.5 µM) | 25 µg/mL (≈ 83.5 µM) | 0.6 µg/mL (≈ 2 µM) | 0.15 µg/mL (≈ 0.501 µM) | 0.6 µg/mL (≈ 2 µM) | 0.6 µg/mL (≈ 2 µM) | 0.6 µg/mL (≈ 2 µM) | MIC [4]: < 0.8 µg/mL; MBC ([13]; strain D (MZ-R)): 0.15 µg/mL (≈ 0.501 µM)
